pIC50: −log10 of the molar value.

The pIC50 is the IC50 on a negative log10 scale, so that one unit is a factor of ten. A lower pIC50 goes with a high IC50.

One experiment has as its system Kv1.5 channel.
Assay: not given
The conditions noted are these: described in the literature, side effect alongside other principal effects; cited from earlier work.
Consider `C1CCC2(C1)C1CN(CC3CC3)CC2CN(CC2CC2)C1` [Tedisamil], for which the “blocking effect on the Kv1.5 channel (in words)” value (from here on “blocking effect”) was “blocking effect on the Kv1.5 channel”.

Consider `CCCCN1CCCCC1C(=O)Nc1c(C)cccc1C` (centres unmarked) [Bupivacaine], for which the “blocking effect” value was “blocking effect on the Kv1.5 channel”. As to `O=C1NCCN1CCN1CCC(c2cn(-c3ccc(F)cc3)c3ccc(Cl)cc23)CC1` [Sertindole], the “blocking effect” value was “blocking effect on the Kv1.5 channel”.

For a further experiment, the system named is fast-activating potassium channel IKr.
Assay: not given
As to conditions: human ventricle and atrium cells; cited from earlier work.
Regarding `CN(CCOc1ccc(NS(C)(=O)=O)cc1)CCc1ccc(NS(C)(=O)=O)cc1` [Dofetilide], the “block of IKr (in words)” value is reported as “predominantly or exclusively block the fast-activating potassium channel IKr”. For `CC(C)NC[C@@H](O)c1ccc(NS(C)(=O)=O)cc1` [d-Sotalol], the “block of IKr (in words)” value is “predominantly or exclusively block the fast-activating potassium channel IKr”.

The next experiment deals with T1, Human Kv1.5 channels (Homo sapiens, UniProt P22460).
T1 construct: expressed in transfected cells; host or cells: Xenopus laevis oocytes injected with Kv1.5-coding RNA synthesized in vitro
T1 sequence (P22460 whole entry): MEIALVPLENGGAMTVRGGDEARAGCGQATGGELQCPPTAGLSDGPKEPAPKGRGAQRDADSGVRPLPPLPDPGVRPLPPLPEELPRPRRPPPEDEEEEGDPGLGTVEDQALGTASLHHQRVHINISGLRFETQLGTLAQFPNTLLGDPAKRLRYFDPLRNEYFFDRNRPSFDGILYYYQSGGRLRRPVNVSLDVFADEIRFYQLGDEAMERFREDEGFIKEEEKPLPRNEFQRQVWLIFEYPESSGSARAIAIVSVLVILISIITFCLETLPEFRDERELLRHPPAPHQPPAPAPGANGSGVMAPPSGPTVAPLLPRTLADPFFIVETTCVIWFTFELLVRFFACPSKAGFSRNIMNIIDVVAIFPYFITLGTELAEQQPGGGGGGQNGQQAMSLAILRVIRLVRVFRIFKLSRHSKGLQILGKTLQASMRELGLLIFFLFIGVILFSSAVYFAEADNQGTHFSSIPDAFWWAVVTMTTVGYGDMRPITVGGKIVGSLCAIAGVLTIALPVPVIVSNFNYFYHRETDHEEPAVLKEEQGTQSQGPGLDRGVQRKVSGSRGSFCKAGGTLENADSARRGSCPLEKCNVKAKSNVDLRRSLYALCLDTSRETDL
Kind of experiment: Inhibition of human Kv1.5 current expressed in Xenopus oocytes (two microelectrode voltage clamp). It counts as cell-based. As to conditions: human Kv1.5 expressed in Xenopus oocytes; voltage jumps to 0 mV and 40 mV, 500 ms; RT; pH 7.4; Hill equation. As to the method: Human Kv1.5 channels were expressed in Xenopus oocytes. For this purpose, oocytes were first isolated from Xenopus laevis and were defolliculated. Kv1.5-coding RNA synthesized in vitro was then injected into these oocytes. After Kv1.5 protein expression for 1-7 days, Kv1.5 currents were measured on the oocytes by the two microelectrode voltage clamp technique. Here, the Kv1.5 channels were activated as a rule with voltage jumps to 0 mV and 40 mV, lasting for 500 ms. The bath was flushed with a solution of the following composition: 96 mM NACl, 2 mM KCl, 1.8 mM CaCl2, 1 mM MgCl2, and 5 mM HEPES (tritrated with NaOH to pH 7.4). These experiments were carried out at RT. The following were used for data acquisition and analysis: Geneclamp amplifier (Axon Instruments, Foster City, USA) and MacLab D/A converter and software (ADinstruments, Castle Hill, Australia). The substances according to the invention were tested by adding them in different concentrations to the bath solution. The effects of the substances were calculated as percentage inhibition of the Kv1.5 control current obtained when no substance was added to the solution. The data were then extrapolated using the Hill equation, in order to determine the inhibitory concentration (IC50) for the respective substances.
As for `O=C(NC1CCc2ccccc21)c1cc(S(=O)(=O)NC2CCC2)c(Cl)cc1Cl` (centres unmarked) [Example 14], the pIC50 is 5.38. On the same count and under the same terms, the value for `CC(C)CCNS(=O)(=O)c1cc(C(=O)N[C@H]2CCc3ccccc32)c(Cl)cc1Cl` [Example 20] was approximately 5.52. The same measure, in the same setting: the result for `COc1ccc(NS(=O)(=O)c2cc(C(=O)NC3CCc4ccccc43)c(Cl)cc2F)cc1` (centres unmarked) [Example 90] reads 5.55; that for `O=C(NC1CCc2ccccc21)c1cc(S(=O)(=O)Nc2ccccc2)ccc1Cl` (centres unmarked) [Example 62], 5.20; that for `NS(=O)(=O)c1cc(C(=O)NC2CCc3ccccc32)ccc1Cl` (centres unmarked) [Example 1], less than 5.00.

As to `CC(C)CCNS(=O)(=O)c1cc(C(=O)N[C@@H]2CCc3ccccc32)c(Cl)cc1Cl` [Example 19], the pIC50 was approximately 5.52. On the same count and under the same terms, the value for `Cc1ccc(S(=O)(=O)NC2CCCCC2)cc1C(=O)NC1CCc2ccccc21` (centres unmarked) [Example 51] was 5.15; that for `O=C(NC1CCc2ccccc21)c1cc(S(=O)(=O)NC2CCCCC2)c(Cl)cc1Cl` (centres unmarked) [Example 13] was 5.41. The same measure, in the same setting: the result for `Cc1cc(C)c(S(=O)(=O)NCCC(C)C)cc1C(=O)NC1CCc2ccccc21` (centres unmarked) [Example 57] reads 5.06; that for `Cc1ccc(S(=O)(=O)NCCC(C)C)cc1C(=O)NC1CCc2ccccc21` (centres unmarked) [Example 43], 5.28. The same measure, in the same setting: the result for `CCCCNS(=O)(=O)c1cc(C(=O)NC2CCc3ccccc32)ccc1Cl` (centres unmarked) [Example 3] reads 5.11. `COc1ccc2c(c1)C(NC(=O)c1ccc(Cl)c(S(=O)(=O)NCCC(C)C)c1)CC2` (centres unmarked) [Example 88] had a pIC50 of 5.06. On the same count and under the same terms, the value for `Cc1cc(S(=O)(=O)NCCC(C)C)cc(C(=O)NC2CCc3ccccc32)c1C` (centres unmarked) [Example 60] was 5.16; that for `CC(C)CNS(=O)(=O)c1cc(C(=O)NC2CCc3ccccc32)c(Cl)cc1Cl` (centres unmarked) [Example 10] was 5.32. On the same count and under the same terms, the value for `O=C(NC1CCc2ccccc21)c1cc(S(=O)(=O)NC2CCCCC2)c(F)cc1Cl` (centres unmarked) [Example 73] was 5.21; that for `CN(C(=O)c1cc(S(=O)(=O)NC2CCCCC2)ccc1Cl)C1CCc2ccccc21` (centres unmarked) [Example 94] was 5.66. Same read-out and setting: the result for `CC(C)CCNS(=O)(=O)c1cc(C(=O)NC2CCc3ccccc32)c(Cl)cc1Cl` (centres unmarked) [Example 11] reads 5.55; that for `COc1cc2c(cc1OC)C(NC(=O)c1ccc(Cl)c(S(=O)(=O)NCCC(C)C)c1)CC2` (centres unmarked) [Example 89], 5.25.

Values taken from patent US6221866A, “Indanyl-substituted benzenecarboxamides, processes for their preparation, their use as a medicament, and pharmaceutical formulations containing them” (priority 1999, dated 2001).
